The source of these data is US11519901B2, “Method for screening for cancer therapeutic agent” (THE UNIVERSITY OF TOKYO, priority 2015, dated 2022).

Like-named read-outs stand apart in the source and are kept apart here.

For experiment [1], the system named is SK-BR3 cell line. Kind of experiment: NANOG and GDF3 expression by quantitative RT-PCR in 4F-induced SK-BR3. It is filed as cell-based, human. The conditions noted are these: SK-BR3, Dox(4F)+, two days. Here is the method: (§1) RT-PCR was performed using the following method. Using RNeasy Plus Mini kit (Qiagen, Hilden, Germany), the total RNA was isolated. Using Go-taq qPCR Master Mix (Promega, Madison, USA), quantitative real-time PCR analysis was performed. The transcription level was standardized based on β-actin or GAPDH value.
(§2) Using a combination of a cancer cell sensitive to a certain kind of anticancer agent and a cancer cell not sensitive to a certain kind of anticancer agent, an influence of a drug-specific cell on the reprogramming was examined. […] Two days later, RNA was extracted from the cells, and the expression levels of NANOG and GDF3 were measured by quantitative RT-PCR (FIG. 5A).

The subject of experiment [2] is HER2-amplified breast cancer cell line SK-BR3. The note with it: stated as known; cited from earlier work.
Experiment [3] shares this test system. Kind of experiment: PODXL expression by RT-PCR in SK-BR3 introduced with reprogramming factor (4F). The class given is cell-based, human. The note with it: 4F-introduced SK-BR3, treated with IC50 concentration of drug. The procedure: (§3) In FIG. 2, FIG. 2A is a schematic drawing describing a method of introducing reprogramming factor, MYOD1 or GFP and siRNA into MP-CCS-SY cell line. […] FIG. 2C is a schematic drawing describing introduction of a reprogramming factor into HCC827 or SK-BR3 cell line and a method of addition of each medicament.
as §1
(§4) Besides the above, an influence of the activation of oncogene signal on cell reprogramming was examined. Epithelial growth factor receptor (EGFR) mutated lung cancer cell line HCC827 and HER2-amplified breast cancer cell line SK-BR3 were used for the experiment. These cancer cell lines are sensitive to EGFR specific tyrosine kinase and HER2 tyrosine kinase inhibitor, respectively. […] Change of gene expression with or without introduction of 4F into HCC827 and SK-BR3 was examined by microarray analysis.

The test system of experiment [4] is SK-BR3 cell line. Briefly: Microarray analysis of gene expression change with or without 4F in SK-BR3. It is filed as cell-based, human. The conditions noted are these: SK-BR3 with or without 4F introduction.
From the text: as §3, §4

The test system of another experiment is HCC827 cell line. The note with it: HCC827, Dox(4F)+, two days. The procedure:
as §1, §2

For experiment [5], the system named is EGFR mutation lung cancer cell line HCC827. The conditions noted are these: stated as known; cited from earlier work.
In experiment [6] the test system is EGFR mutated lung cancer cell line HCC827. Briefly: PODXL expression by RT-PCR in HCC827 introduced with reprogramming factor (4F). The conditions noted are these: 4F-introduced HCC827, treated with IC50 concentration of drug. It is filed as cell-based, human. The procedure:
as §3, §1, §4

Where [7] appears, read: Imatinib 1 or 10 μM, 5-FU 10 or 50 μM (FIG. 5B legend).

Consider `CS(=O)(=O)CCNCc1ccc(-c2ccc3ncnc(Nc4ccc(OCc5cccc(F)c5)c(Cl)c4)c3c2)o1` [lapatinib], for which the “expression of GDF3” value in the experiment on SK-BR3 cell line [1] (0.05 μM), in the experiment on SK-BR3 cell line [1] (0.5 μM) and in the experiment on HCC827 cell line (0.5 μM) was “promoted” each time. Further, the “expression of NANOG” value in the experiment with SK-BR3 cell line [1] (0.05 μM), in the experiment with SK-BR3 cell line [1] (0.5 μM) and in the experiment on HCC827 cell line (0.5 μM) was “promoted” each time. Also, the “sensitivity of cell line to drug” value in experiment [2] and in experiment [5] was “sensitive” in each case. Further, the “expression of reprogramming marker PODXL” value in experiment [3] is “promoted”. In addition, in the experiment on SK-BR3 cell line [4], the “change of gene expression (many genes including PODXL and NANOG), microarray” value is given as “upregulated or downregulated”.
In the case of `O=c1[nH]cc(F)c(=O)[nH]1` [5FU, 5-fluorouracil], the PODXL expression result in experiment [6] is listed as “did not increase”. For the same compound, the “expression of reprogramming marker PODXL” value in experiment [3] was “did not increase”. For the same compound, in the experiment with HCC827 cell line (setting [7]), the “expression of GDF3” value is given as “did not promote” and the “expression of NANOG” value was “did not promote”.
